# pIC50: −log10 of the molar value.
# Legend:
# IL 18 = assay: Mouse in vivo model of peritoneal inflammation (LPS/ATP), IL 18 in peritoneal lavage fluid; set-up: species or system Mice; conditions: mouse peritonitis, IP injection
# Procedure: (§1) Compounds of the present invention were tested in a mouse in vivo model of peritoneal inflammation (peritonitis). Mice were treated with intraperotonial injection of bacterial endotoxin, (LPS). After 1 hour, test compounds were administered by IP injection. After an additional hour, adenosine triphosphate (ATP) was administered by IP injection to further induce the production of the inflammatory cytokines, IL-1β and IL 18. After 0.5 hours, peritoneal lavage fluid was collected and analyzed for IL-1β and IL 18. An inhibitor of the NLRP 3 inflammasome, MCC950, was administered by IP injection and included as a reference test compound. […] IL18 levels were determined by a commercially available ELISA kit following the manufacture's instructions FIG. 3.
# Caspase 7 = molecular target: T1, Caspase 7 (Homo sapiens, UniProt P55210); assay: Caspase 7 enzymatic inhibition assay, IC50; assay type: biochemical; conditions: read-out: Caspase 7 enzyme inhibition IC50
# T1 construct: purchased Enzo Biosciences
# T1 sequence (P55210 24-198 limits assumed): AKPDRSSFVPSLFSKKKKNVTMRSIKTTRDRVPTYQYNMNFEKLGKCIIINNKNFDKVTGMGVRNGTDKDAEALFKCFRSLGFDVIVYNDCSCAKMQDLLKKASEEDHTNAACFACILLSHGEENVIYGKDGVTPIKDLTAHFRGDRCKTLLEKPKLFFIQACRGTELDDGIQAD
# T1 sequence (P55210 207-303 limits assumed): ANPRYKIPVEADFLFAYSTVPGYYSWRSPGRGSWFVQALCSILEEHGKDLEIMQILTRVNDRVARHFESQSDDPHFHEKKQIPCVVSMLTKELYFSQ
# Outline: (§2)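 Human caspase-3/-6/-7, commercial enzyme; run per manufacturer's instructions; IC50 from enzymatic activity.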
# Caspase 6 = molecular target: T2, Caspase 6 (Homo sapiens, UniProt P55212); assay: Caspase 6 enzymatic inhibition assay, IC50; assay type: biochemical; conditions: read-out: Caspase 6 enzyme inhibition IC50
# T2 construct: purchased Enzo Biosciences
# T2 sequence (P55212 24-179 limits assumed): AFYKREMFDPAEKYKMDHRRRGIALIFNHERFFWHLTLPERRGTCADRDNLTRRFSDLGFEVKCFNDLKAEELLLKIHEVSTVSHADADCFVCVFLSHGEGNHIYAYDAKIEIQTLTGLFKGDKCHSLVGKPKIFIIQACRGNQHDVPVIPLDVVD
# T2 sequence (P55212 194-293 limits assumed): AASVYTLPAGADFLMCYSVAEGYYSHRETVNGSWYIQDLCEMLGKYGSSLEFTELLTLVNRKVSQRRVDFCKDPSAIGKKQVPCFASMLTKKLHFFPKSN
# Outline: as §2
# IL-1β = assay: Mouse in vivo model of peritoneal inflammation (LPS/ATP), IL-1β in peritoneal lavage fluid; set-up: species or system Mice; conditions: mouse peritonitis, IP injection
# Procedure: as §1
# [1] = Rodent model of ulcerative colitis induced by TNBS; assay type: in vivo, Sprague-Dawley rats; conditions: for colon histology: Edema, Submucosal, Mean / colon histology: Erosion/ Ulceration, Mean / colon histology: Hyperplasia, Epithelial, Mean / colon histology: Necrosis, Mucosal/ Gland Loss, Mean / colon histology: SUM Score, Mean / colon histology: Subacute Inflammation, Mucosal/ Submucosal, Mean / colon histology: Subacute Inflammation, Transmural/ Serosal, Mean: DAY 7
# Procedure: Compounds of the present invention were tested by oral administration in a rodent model of ulcerative colitis (UC). Ulcerative colitis was induced in Sprague-Dawley rats by instillation of 48 mg/kg […], (TNBS), through the rectum. Testing included 4 active treatment groups and one vehicle control group.
# Effect of TNBS-Induced UC in Vehicle Treated Control Group, (Group 1):
# Rats were administered of 0.5% vehicle carboxy methylcellulose, (CMC), twice daily starting 24 hours after the instillation of TNBS.
# At the termination of the study on DAY 7, the average colon weight in the diseased rats was 5.904±2.208 g, the average colon length was 11.0±1.4 cm and the average distal colon width was 3.1±1.0 cm. Severe adhesions involving multiple intestinal loops, severe stricture resulting in proximal colon distension, ulcers of 6.4±0.4 cm in length, and colonic wall thickness of 3.5±0.8 mm combined to yield an overall colonic score of 11.5±0.8 in the diseased rats. […] Subacute inflammation (sub/mucosal and transmural/serosal were graded separately) was characterized by infiltration and aggregation of neutrophils, eosinophils, lymphocytes, plasma cells, and macrophages. Mucosal necrosis was characterized by damage to, necrosis of, or complete loss of colonic glands. Erosions were characterized by coagulative necrosis or loss of surface epithelium superficial to the muscularis mucosae. Submucosal edema was characterized by expansion of the submucosa by clear space or pale eosinophilic fluid, variably accompanied by dilation of lymphatic vessels and similar edematous expansion of the lamina propria. Epithelial hyperplasia was characterized by elongation of colonic glands and increased numbers of epithelial mitotic figures.
# [2] = Group 3, 10 mg/kg/dose twice daily oral
# [3] = Group 4, 30 mg/kg/dose twice daily oral
# [4] = Group 5, 100 mg/kg/dose twice daily oral
# [5] = all dose groups (10, 30, 100 mg/kg/dose twice daily oral)
structure (smiles),measurement,setting,value
"C[C@H](NC(=O)C(=O)Nc1c(F)cccc1F)C(=O)N[C@@H](CCC(=O)O)C(=O)COc1c(F)c(F)cc(F)c1F [Example 6, (S)-4-((S)-2-(2-((2,6-Difluorophenyl)amino)-2-oxoacetamido)propanamido)-5-oxo-6-(2,3,5,6-tetrafluorophenoxy)hexanoic acid]",inhibition of the in vivo production of IL 18,IL 18,statistically significant inhibition
same,pIC50,Caspase 7,≤ 6.00
same,pIC50,Caspase 6,≤ 6.00
same,inhibition of the in vivo production of IL-1β,IL-1β,statistically significant inhibition
same,"body weights, onset of significant improvement",[1]; [2],significantly improved beginning on DAY 4
same,"colon histology: Edema, Submucosal, Mean",[1]; [2],3.2
same,"colon histology: Erosion/ Ulceration, Mean",[1]; [2],4.0
same,"colon histology: Hyperplasia, Epithelial, Mean",[1]; [2],3.4
same,"colon histology: Necrosis, Mucosal/ Gland Loss, Mean",[1]; [2],4.0
same,"colon histology: SUM Score, Mean",[1]; [2],19.3
same,"colon histology: Subacute Inflammation, Mucosal/ Submucosal, Mean",[1]; [2],4.3
same,"colon histology: Subacute Inflammation, Transmural/ Serosal, Mean",[1]; [2],3.9
same,"average animal weight, Mean","[1]; Group 3, 10 mpk twice daily oral, study day 0",241 g
same,"average animal weight, Mean","[1]; Group 3, 10 mpk twice daily oral, study day 1",236 g
same,"average animal weight, Mean","[1]; Group 3, 10 mpk twice daily oral, study day 2",223 g
same,"average animal weight, Mean","[1]; Group 3, 10 mpk twice daily oral, study day 3",218 g
same,"average animal weight, Mean","[1]; Group 3, 10 mpk twice daily oral, study day 4",218 g
same,"average animal weight, Mean","[1]; Group 3, 10 mpk twice daily oral, study day 5",222 g
same,"average animal weight, Mean","[1]; Group 3, 10 mpk twice daily oral, study day 6",227 g
same,"average animal weight, Mean","[1]; Group 3, 10 mpk twice daily oral, study day 7",228 g
same,"average animal weight, Mean","[1]; Group 3, 10 mpk twice daily oral, study day −1",256 g
same,"average animal weight, Mean","[1]; Group 3, 10 mpk twice daily oral, study day −5",222 g
same,"body weights, onset of significant improvement",[1]; [3],statistically significantly improved body weights starting on DAY 5
same,reduction in overall colonic score,[1]; [3],40%
same,"colon histology: Edema, Submucosal, Mean",[1]; [3],2.6
same,"colon histology: Erosion/ Ulceration, Mean",[1]; [3],3.4
same,"colon histology: Hyperplasia, Epithelial, Mean",[1]; [3],3.1
same,"colon histology: Necrosis, Mucosal/ Gland Loss, Mean",[1]; [3],3.4
same,"colon histology: SUM Score, Mean",[1]; [3],17.6
same,"colon histology: Subacute Inflammation, Mucosal/ Submucosal, Mean",[1]; [3],3.9
same,"colon histology: Subacute Inflammation, Transmural/ Serosal, Mean",[1]; [3],3.2
same,"average animal weight, Mean","[1]; Group 4, 30 mpk twice daily oral, study day 0",234 g
same,"average animal weight, Mean","[1]; Group 4, 30 mpk twice daily oral, study day 1",228 g
same,"average animal weight, Mean","[1]; Group 4, 30 mpk twice daily oral, study day 2",215 g
same,"average animal weight, Mean","[1]; Group 4, 30 mpk twice daily oral, study day 3",214 g
same,"average animal weight, Mean","[1]; Group 4, 30 mpk twice daily oral, study day 4",216 g
same,"average animal weight, Mean","[1]; Group 4, 30 mpk twice daily oral, study day 5",218 g
same,"average animal weight, Mean","[1]; Group 4, 30 mpk twice daily oral, study day 6",220 g
same,"average animal weight, Mean","[1]; Group 4, 30 mpk twice daily oral, study day 7",223 g
same,"average animal weight, Mean","[1]; Group 4, 30 mpk twice daily oral, study day −1",248 g
same,"average animal weight, Mean","[1]; Group 4, 30 mpk twice daily oral, study day −5",222 g
same,"body weights, onset of significant improvement",[1]; [4],statistically significantly improved body weights starting on DAY 5
same,"colon histology: Edema, Submucosal, Mean",[1]; [4],3.0
same,"colon histology: Erosion/ Ulceration, Mean",[1]; [4],3.6
same,"colon histology: Hyperplasia, Epithelial, Mean",[1]; [4],3.0
same,"colon histology: Necrosis, Mucosal/ Gland Loss, Mean",[1]; [4],3.6
same,"colon histology: SUM Score, Mean",[1]; [4],17.5
same,"colon histology: Subacute Inflammation, Mucosal/ Submucosal, Mean",[1]; [4],3.9
same,"colon histology: Subacute Inflammation, Transmural/ Serosal, Mean",[1]; [4],3.4
same,"average animal weight, Mean","[1]; Group 5, 100 mpk twice daily oral, study day 0",232 g
same,"average animal weight, Mean","[1]; Group 5, 100 mpk twice daily oral, study day 1",231 g
same,"average animal weight, Mean","[1]; Group 5, 100 mpk twice daily oral, study day 2",219 g
same,"average animal weight, Mean","[1]; Group 5, 100 mpk twice daily oral, study day 3",213 g
same,"average animal weight, Mean","[1]; Group 5, 100 mpk twice daily oral, study day 4",217 g
same,"average animal weight, Mean","[1]; Group 5, 100 mpk twice daily oral, study day 5",220 g
same,"average animal weight, Mean","[1]; Group 5, 100 mpk twice daily oral, study day 6",222 g
same,"average animal weight, Mean","[1]; Group 5, 100 mpk twice daily oral, study day 7",225 g
same,"average animal weight, Mean","[1]; Group 5, 100 mpk twice daily oral, study day −1",246 g
same,"average animal weight, Mean","[1]; Group 5, 100 mpk twice daily oral, study day −5",222 g
same,SUM scores of colon histological parameters,[1]; [5],statistically significant improvement
same,overall colonic score,[1]; [5],statistically significant improvement

# — patent publication US11597703B2, “Caspase inhibitors and methods of use thereof” (Histogen Inc., priority 2019, dated 2023)
